This note sets out measurements from ChEMBL document CHEMBL1649233, “In vitro bactericidal activity of iclaprim in human plasma” (Antimicrob Agents Chemother, 2009).

Data set [1] deals with Staphylococcus aureus. As to the kind of experiment: Bactericidal activity against methicillin-susceptible Staphylococcus aureus after 24 hrs by M26-A method. Type of data set: functional.
Data set [2] concerns Staphylococcus aureus. The experiment in a line: Antimicrobial activity against methicillin-resistant Staphylococcus aureus by broth microdilution method. The class given is functional. (In general: Broth dilution looks for growth in wells or tubes with falling amounts of substance.)
The subject of data set [3] is Staphylococcus aureus. As to the kind of experiment: Antimicrobial activity against methicillin-resistant Staphylococcus aureus by broth microdilution method in presence of 50% human plasma. The class given is functional.
Data set [4] deals with Staphylococcus aureus. As to the kind of experiment: Bactericidal activity against methicillin-resistant Staphylococcus aureus after 24 hrs by M26-A method in presence of 50% human plasma. The class given is functional.
The test system of data set [5] is Staphylococcus aureus. The experiment in a line: Bactericidal activity against methicillin-susceptible Staphylococcus aureus after 24 hrs by M26-A method in presence of 50% human plasma. The class given is functional.
The test system of data set [6] is Staphylococcus aureus. The experiment in a line: Antimicrobial activity against methicillin-susceptible Staphylococcus aureus by broth microdilution method in presence of 50% human plasma. The class given is functional.
The test system of data set [7] is Staphylococcus aureus. The experiment in a line: Bactericidal activity against methicillin-resistant Staphylococcus aureus after 24 hrs by M26-A method. The class given is functional.
Data set [8] deals with Staphylococcus aureus. As to the kind of experiment: Antimicrobial activity against methicillin-susceptible Staphylococcus aureus by broth microdilution method. The class given is functional.
The subject of data set [9] is Staphylococcus aureus. The experiment in a line: Ratio of MBC to MIC for methicillin-susceptible Staphylococcus aureus in presence of 50% human plasma. Type of data set: functional.
The nature of data set [10]: Plasma protein binding in human. The class given is ADME, cell-free. The following applies: read-out: PPB (converted).
The test system of data set [11] is Staphylococcus aureus. The experiment in a line: Ratio of MBC to MIC for methicillin-susceptible Staphylococcus aureus. The class given is functional.
Data set [12] deals with Staphylococcus aureus. The experiment in a line: Bactericidal activity against methicillin-resistant Staphylococcus aureus 20 on CAMHB media at 4 times MIC by time kill analysis in presence of 50% human plasma. Type of data set: functional.
Data set [13] has as its system Staphylococcus aureus. The experiment in a line: Bactericidal activity against methicillin-resistant Staphylococcus aureus 3817 on CAMHB media at 4 times MIC by time kill analysis. Type of data set: functional.
Data set [14] relates to Staphylococcus aureus. The experiment in a line: Bactericidal activity against methicillin-resistant Staphylococcus aureus 20 on CAMHB media at 4 times MIC by time kill analysis. Type of data set: functional.
Data set [15] deals with Staphylococcus aureus. The experiment in a line: Bactericidal activity against methicillin-resistant Staphylococcus aureus 50478 on CAMHB media at 4 times MIC by time kill analysis in presence of 50% human plasma. The class given is functional.
Data set [16] concerns Staphylococcus aureus. The experiment in a line: Bactericidal activity against methicillin-susceptible Staphylococcus aureus ATCC 25923 on CAMHB media at 4 times MIC by time kill analysis. The class given is functional.
In data set [17] the test system is Staphylococcus aureus. The experiment in a line: Ratio of MIC for glycopeptide-nonsusceptible Staphylococcus aureus NJ992 in presence of 50% heat inactivated serum to MIC for glycopeptide-nonsusceptible Staphylococcus aureus NJ992. Type of data set: functional.
Data set [18] concerns Staphylococcus aureus. As to the kind of experiment: Bactericidal activity against methicillin-resistant Staphylococcus aureus 6 on CAMHB media at 4 times MIC by time kill analysis in presence of 50% human plasma. The class given is functional.
In data set [19] the test system is Staphylococcus aureus. The experiment in a line: Bactericidal activity against methicillin-resistant Staphylococcus aureus 50478 on CAMHB media at 4 times MIC by time kill analysis. Type of data set: functional.
Data set [20] deals with Staphylococcus aureus. The experiment in a line: Bactericidal activity against methicillin-susceptible Staphylococcus aureus ATCC 25923 on CAMHB media at 4 times MIC by time kill analysis in presence of 50% human plasma. The class given is functional.
Data set [21] relates to Staphylococcus aureus. As to the kind of experiment: Bactericidal activity against methicillin-resistant Staphylococcus aureus 6 on CAMHB media at 4 times MIC by time kill analysis. The class given is functional.
The subject of data set [22] is Staphylococcus aureus. The experiment in a line: Bactericidal activity against methicillin-resistant Staphylococcus aureus 3817 on CAMHB media at 4 times MIC by time kill analysis in presence of 50% human plasma. The class given is functional.

The structures appear in SMILES notation. In brackets after ≈: the same amount, converted by molar mass.

For orientation: MBC means the lowest tested concentration that kills the bacteria rather than only halting them. Usually MIC stands for the lowest concentration that inhibits growth of the organism. Regarding `CC(=O)NC[C@H]1CN(c2ccc(N3CCOCC3)c(F)c2)C(=O)O1` [LINEZOLID], the MBC with Staphylococcus aureus [1], in the data set with Staphylococcus aureus [4], in the data set with Staphylococcus aureus [5] and against Staphylococcus aureus [7] was above 32 µg/mL in each case. Also, the MIC in the data set on Staphylococcus aureus [2] was determined as 3.73 µg/mL (≈ 11.1 µM); in the data set on Staphylococcus aureus [3], 2.55 µg/mL; in the data set on Staphylococcus aureus [6], 2.55 µg/mL; against Staphylococcus aureus [8] it was 3.73 µg/mL (≈ 11.1 µM).
Regarding `CC(=O)O[C@H]1C[C@@]2(C)[C@@H](C[C@@H](O)[C@H]3[C@@]4(C)CC[C@@H](O)[C@@H](C)[C@@H]4CC[C@@]32C)/C1=C(\CCC=C(C)C)C(=O)O` [FUSIDIC ACID], the values for the Ratio in the data set on Staphylococcus aureus [9] and in the data set on Staphylococcus aureus [11] were 4 and 2, respectively. Moreover, the MIC against Staphylococcus aureus [2] was 0.14 µg/mL (≈ 0.271 µM); with Staphylococcus aureus [3] it was 6.73 µg/mL; in the data set on Staphylococcus aureus [6], 6.73 µg/mL; with Staphylococcus aureus [8], 0.14 µg/mL (≈ 0.271 µM). The fraction unbound in [10] was 0.03.
As to `CC(=O)N[C@@H]1[C@H](Oc2c3cc4cc2Oc2ccc(cc2Cl)[C@@H](O[C@@H]2O[C@@H](CO)[C@@H](O)[C@H](O)[C@@H]2NC(C)=O)[C@@H]2NC(=O)[C@H](NC(=O)[C@@H]4NC(=O)[C@H]4NC(=O)[C@@H](Cc5ccc(c(Cl)c5)O3)NC(=O)[C@H](N)c3ccc(O)c(c3)Oc3cc(O)cc4c3)c3ccc(O)c(c3)-c3c(O[C@H]4O[C@H](CO)[C@@H](O)[C@@H](O)[C@@H]4O)cc(O)cc3[C@@H](C(=O)O)NC2=O)O[C@@H](CO)[C@@H](O)[C@@H]1O`, the Ratio with Staphylococcus aureus [9] and in the data set with Staphylococcus aureus [11] was 1 in each case. Also, the MBC against Staphylococcus aureus [1] was found to be 1.41 µg/mL (≈ 0.798 µM); in the data set on Staphylococcus aureus [4] it was 1.68 µg/mL; with Staphylococcus aureus [5], 1.68 µg/mL; with Staphylococcus aureus [7], 1.41 µg/mL (≈ 0.798 µM). Besides, the MIC came to 1.07 µg/mL (≈ 0.605 µM) with Staphylococcus aureus [2], 1.23 µg/mL in the data set on Staphylococcus aureus [3], 1.23 µg/mL in the data set on Staphylococcus aureus [6] and 1.07 µg/mL (≈ 0.605 µM) with Staphylococcus aureus [8].
In the case of `COc1cc(Cc2cnc(N)nc2N)c2c(c1OC)OC(C1CC1)C=C2` (configuration not stated), the Time came out at 5 h in the data set on Staphylococcus aureus [12]; 6.1 h in the data set on Staphylococcus aureus [13]; 5.5 h with Staphylococcus aureus [14]; 6 h with Staphylococcus aureus [15]; 6.2 h in the data set with Staphylococcus aureus [16]; 7.6 h in the data set with Staphylococcus aureus [18]. Also, the Time worked out at 6.8 h in the data set with Staphylococcus aureus [19] and 7.2 h with Staphylococcus aureus [20]. The Ratio in the data set on Staphylococcus aureus [9], with Staphylococcus aureus [11] and with Staphylococcus aureus [17] was 1 in each case. Further, the MBC in the data set with Staphylococcus aureus [1] was 0.1 µg/mL (≈ 0.282 µM); with Staphylococcus aureus [4] it was 0.11 µg/mL; in the data set on Staphylococcus aureus [5], 0.11 µg/mL; in the data set on Staphylococcus aureus [7] it was 0.1 µg/mL (≈ 0.282 µM). In addition, the MIC against Staphylococcus aureus [2] amounted to 0.09 µg/mL (≈ 0.254 µM); in the data set on Staphylococcus aureus [3], 0.11 µg/mL; with Staphylococcus aureus [6], 0.11 µg/mL; against Staphylococcus aureus [8] it was 0.09 µg/mL (≈ 0.254 µM). Further, the fraction unbound in [10] is 0.07.
In the case of `CN[C@H](CC(C)C)C(=O)N[C@H]1C(=O)N[C@@H](CC(N)=O)C(=O)N[C@H]2C(=O)N[C@H]3C(=O)N[C@H](C(=O)N[C@H](C(=O)O)c4cc(O)cc(O)c4-c4cc3ccc4O)[C@H](O)c3ccc(c(Cl)c3)Oc3cc2cc(c3O[C@@H]2O[C@H](CO)[C@@H](O)[C@H](O)[C@H]2O[C@H]2C[C@](C)(N)[C@H](O)[C@H](C)O2)Oc2ccc(cc2Cl)[C@H]1O` [VANCOMYCIN], the Time in the data set on Staphylococcus aureus [12] was found to be 17 h; in the data set with Staphylococcus aureus [13] it was 17 h; in the data set on Staphylococcus aureus [14], 10.6 h; in the data set with Staphylococcus aureus [21], 13.5 h; with Staphylococcus aureus [15] it was 12 h; in the data set with Staphylococcus aureus [16], 15 h. In addition, the results for the Time in the data set with Staphylococcus aureus [22] and with Staphylococcus aureus [20] were 15.6 h and 12.8 h, respectively. The MBC turned out to be 1.74 µg/mL (≈ 1.2 µM) with Staphylococcus aureus [1], 1.52 µg/mL in the data set with Staphylococcus aureus [4], 1.52 µg/mL with Staphylococcus aureus [5] and 1.74 µg/mL (≈ 1.2 µM) against Staphylococcus aureus [7]. For the same molecule, the MIC in the data set with Staphylococcus aureus [2] was found to be 1.62 µg/mL (≈ 1.12 µM); with Staphylococcus aureus [3], 1.46 µg/mL; in the data set with Staphylococcus aureus [6] it was 1.46 µg/mL; in the data set with Staphylococcus aureus [8], 1.62 µg/mL (≈ 1.12 µM). Further, the fraction unbound in data set [10] is 0.45.
